From patent publication US20130131321A1, “LIGANDS FOR ANTIBODY AND Fc-FUSION PROTEIN PURIFICATION BY AFFINITY CHROMATOGRAPHY” (GRAFFINITY PHARMACEUTICALS GMBH, priority 2010, published 2013)

Tests used:
Bevacizumab [1] = target: T1, Bevacizumab (Homo sapiens, UniProt P01857); experiment: Microtiter plate chromatography of resins, Bevacizumab whole IgG (bound, yield, selectivity); assay type: binding, humanized
T1 construct: fused on or other part: humanised anti-VEGF-A VH domain N-terminal of the gamma-1 constant region (engineered, no UniProt entry)

Bevacizumab [2] = experiment: as above; assay type: binding, humanized
Tocilizumab = experiment: Microtiter plate chromatography of resins, Tocilizumab (bound, yield); assay type: binding, humanized
Palivizumab = experiment: Microtiter plate chromatography of resins, Palivizumab (bound, yield); assay type: binding, humanized
[3] = test system: human poly-IgG (h-poly-IgG); experiment: Microtiter plate chromatography of resins, human poly-IgG (bound, yield); assay type: binding
Bevacizumab Fab fragment = experiment: Microtiter plate chromatography of resins, Bevacizumab Fab fragment (bound); assay type: binding, humanized; settings: for Bevacizumab Fab Bound (%): Bevacizumab Fab fragment
Description: (§1) Resins were assessed in packed mode by microtiter plate chromatography. For each column, approximately 30 μl of resin were transferred to a 384-well filter plate and sealed with appropriate top frits.
(§2) Columns were equilibrated with 6.7 column volumes (cv) of phosphate buffered saline (0.15 M NaCl, 20 mM sodium phosphate, pH 7.3; PBS) prior to injection. Either 3.3 cv of whole IgGs dissolved at 0.75 mg ml^−1, Fab or Fc fragments dissolved at 0.25 mg ml^−1 (all three in PBS) or host cell proteins (HCP) were injected onto columns. Antibody fragments of Bevacizumab (Fab and Fc) were prepared by cleavage of whole IgG with papain protease (3) according to the protocol of the manufacturer. […] Volumes transferred were spun through columns at 50 g for 1-2 min. During injection of samples, acceleration was reduced to 10 g and centrifugation time increased to 5-10 min. Effluent fractions were collected in 384-well plates and concentrations of protein analyzed by Bradford assay. Protein masses mi, mft and me (see below) were calculated as the product of fraction volume and measured protein concentration.
(§3) The fraction of ‘bound’ protein was calculated as the difference between the total mass of protein injected mi and the mass of protein detected in the flowthrough mft, divided by the total mass of protein injected.
(§4) the fraction of ‘bound’ protein and the ‘yield’ of protein were calculated for each resin based on data for whole IgG-antibodies. In the case of Bevacizumab fragments and host cell proteins, only the fraction of ‘bound’ protein is given. Selectivity of resins was calculated from data for Bevacizumab Whole IgG and host cell proteins. Due to limited experimental precision, selectivity was truncated beyond values of 10.

Bevacizumab Fc fragment = experiment: Microtiter plate chromatography of resins, Bevacizumab Fc fragment (bound); assay type: binding, humanized; settings: for Bevacizumab Fc Bound (%): Bevacizumab Fc fragment
Description: as §1, §2, §3, §4

host cell proteins (HCP) [4] = experiment: Microtiter plate chromatography of resins, host cell proteins (bound); assay type: binding, CHO; settings: host cell proteins
Bevacizumab [5] = target: T1, Bevacizumab; experiment: Langmuir isotherms by batch adsorption; assay type: binding, humanized; settings: Bevacizumab in PBS pH 7.3, 25° C., at least 3 h; for Kd: read-out: Kd (dissociation constant, Langmuir isotherm)
Description: Experiments were performed with Bevacizumab as antibody. Parameters of Langmuir isotherms for purified antibody were determined by batch adsorption experiments in 96-well microtiter plates. In each well, 10 μl of sorbent slurry (50% v/v) were mixed with 100 μl of protein solution. Initial concentrations varied from 0.05-5 mg ml^−1 in phosphate-buffered saline (0.15 M NaCl, 20 mM phosphate buffer, pH 7.3; PBS). Reactions were agitated vigorously at 25° C. for at least 3 h. Afterwards, antibody concentration in the supernatents were measured by Bradford assay.
Parameters of Langmuir isotherms, i.e. dissociation constants Kd and maximum capacities qm, were determined from the measured concentrations in supernatants. Parameters were estimated by numerical fitting of the model equation derived by Chase (4).

host cell proteins (HCP) [6] = experiment: Microtiter plate chromatography of resins, host cell proteins (bound); assay type: binding, CHO; settings: estimate predicted on the basis of close analogs L49 and L50
[7] = fraction of whole IgG Bevacizumab bound to resin
[8] = mass of whole IgG Bevacizumab eluted / mass injected
[9] = estimate predicted on the basis of close analogs L49 and L50

Compound	Bevacizumab IgG Bound (%) (Bevacizumab [1]; [7])	Bevacizumab IgG Yield (%) (Bevacizumab [1]; [8])	Selectivity (Bevacizumab [2])	Tocilizumab Bound (%) (Tocilizumab)	Tocilizumab Yield (%) (Tocilizumab)	Palivizumab Bound (%) (Palivizumab)	Palivizumab Yield (%) (Palivizumab)	h-poly-IgG Bound (%) [3]	h-poly-IgG Yield (%) [3]	Bevacizumab Fab Bound (%) (Bevacizumab Fab fragment)	Bevacizumab Fc Bound (%) (Bevacizumab Fc fragment)	HCP Bound (%) (host cell proteins (HCP) [4])	qm (maximum capacity, Langmuir isotherm) (Bevacizumab [5])	Kd (Bevacizumab [5])	binding of Bevacizumab Fab-fragment (Bevacizumab Fab fragment; Fab 0.25 mg ml^-1 in PBS)	binding of Bevacizumab Fc-fragment (Bevacizumab Fc fragment; Fc 0.25 mg ml^-1 in PBS)	Bevacizumab IgG Bound (%) (Bevacizumab [1]; [9])	Bevacizumab IgG Yield (%) (Bevacizumab [1]; [9])	HCP Bound (%) (host cell proteins (HCP) [6])
COc1ccc(NC(=O)c2cc(-c3ccsc3)n(C)n2)cc1C(=O)NCCCN [Ligand L8, 2-Methoxy-5-[1-methyl-5-(3-thienyl)pyrazol-3-yl]carboxamidobenzoic acid N-(3-aminopropyl)amide]	100%	96%	2.3	100%	97%	100%	89%	100%	86%	82%	99%	44%							
COc1ccc(NC(=O)c2cncc(-c3ccco3)c2)cc1C(=O)NCCCN [Ligand L13, 5-[3-(2-Furyl)pyridin-5-yl]carboxamido-2-methoxybenzoic acid N-(3-aminopropyl)amide]	100%	94%		91%	79%	65%	58%	76%	75%	9%	64%	38%	37 mg per ml resin	411 µM					
Cn1nc(C(=O)Nc2cccc(C(=O)NCCCN)c2)cc1-c1ccco1 [Ligand L17, 3-[5-(2-Furyl)-1-methylpyrazol-3-yl]carboxamidobenzoic acid N-(3-aminopropyl)amide]	100%	94%		97%	89%	81%	70%	91%	87%			36%	26 mg per ml resin						
COc1ccc(NC(=O)c2cncc(-c3ccoc3)c2)cc1C(=O)NCCCN [Ligand L22, 5-[3-(3-Furyl)pyridin-5-yl]carboxamido-2-methoxybenzoic acid N-(3-aminopropyl)amide]	100%	92%		62%	58%	40%	34%	63%	58%			33%	29 mg per ml resin	373 µM					
COc1ccc(NC(=O)c2cncc(C3CC3)c2)cc1C(=O)NCCCN [Ligand L23, 5-(3-Cyclopropylpyridin-5-yl)carboxamido-2-methoxybenzoic acid N-(3-aminopropyl)amide]	100%	98%		86%	85%	61%	57%	75%	74%	12%	67%	32%	33 mg per ml resin						
C#Cc1cncc(C(=O)Nc2ccc(OC)c(C(=O)NCCCN)c2)c1 [Ligand L24, 5-(3-Ethynylpyridin-5-yl)carboxamido-2-methoxybenzoic acid N-(3-aminopropyl)amide]	100%	97%		41%	40%	24%	21%	45%	47%			29%	33 mg per ml resin	596 µM					
COc1ccc(NC(=O)c2nn(C)c3ccccc23)cc1C(=O)NCCCN [Ligand L27, 2-Methoxy-5-(1-methylindazol-3-yl)carboxamidobenzoic acid N-(3-aminopropyl)amide]	100%	94%		100%	104%	100%	94%	98%	89%	6%	96%	35%	33 mg per ml resin		not the Fab-fragment	bound the Fc-fragment			
COc1ccc(NC(=O)c2cn3ccsc3n2)cc1C(=O)NCCOCC(=O)NCCCC[C@H](NC(=O)COCCNC(=O)c1cc(NC(=O)c2cn3ccsc3n2)ccc1OC)C(=O)NCCCN [Ligand L53, (S)-2,6-Bis{5-[5-(Imidazo[2,1-b]thiazol-6-ylcarboxamido)-2-methoxyphenylcarboxamido]-3-oxapentanoylamido}hexanoic acid (3-amino-1-propyl)amide]				>90%	>90%												>95%	>85%	<20%
